The target of test [1] is T1, EP2 (Homo sapiens, UniProt P43116). The test is described as follows: EP2 cAMP functional assay. The test is classed as cell-based.
Test [2] addresses T1, EP2. The test is described as follows: EP2 binding assay (Ki).
In test [3] the target is T2, EP4 (Homo sapiens, UniProt P35408). Briefly: EP4 cAMP functional assay. The format is cell-based.
The target in test [4] is T2, EP4. Briefly: EP4 binding assay (Ki).
Test [5] deals with incisional wounds. Briefly: Incisional skin wound model and assessment. Particulars: rats, Day 7, topical 0.004% twice daily for 5 days, drug-treated, scale of 0 to 6, higher = severer scar. The test is classed as in vivo, Sprague-Dawley rats. The text has this: Sprague-Dawley rats at 180-200 gram were anesthetized with isoflourane. After shaving, 2-cm long incisions were made on the left and right side of the back, reaching the deep fascia on the back skin of rats under sterile conditions. Incisional wounds were immediately closed with 4.0 sutures, and then topically treated with a vehicle or test drugs at 0.004% twice daily for 5 days. The vehicle used here contains ethanol 30%, propylene glycol 12%, dipropylene glycol 5%, benzyl alcohol 5%, glycerol 3% and normal saline 45%. Wounds were photographed on day 7. All photos were coded and scored by lay people. Evaluation of wound sites was based on scar width, palpability (elevation) of wound areas, and general progress in healing, using a scale of 0 to 6; the severer a scar, the higher the score. Each scar was divided into 4 regions, separated by suture sites; each quarter was scored independently; the mean of the 4 part scores was recorded as the overall scar score of each incision site.

Each structure is given as a SMILES string. Bounds are passed on as bounds.

As usually defined, the EC50 is the concentration at which the effect is half-maximal. Broadly, the IC50 is the concentration that inhibits the measured activity by half.

T1 sequence (P43116 whole entry): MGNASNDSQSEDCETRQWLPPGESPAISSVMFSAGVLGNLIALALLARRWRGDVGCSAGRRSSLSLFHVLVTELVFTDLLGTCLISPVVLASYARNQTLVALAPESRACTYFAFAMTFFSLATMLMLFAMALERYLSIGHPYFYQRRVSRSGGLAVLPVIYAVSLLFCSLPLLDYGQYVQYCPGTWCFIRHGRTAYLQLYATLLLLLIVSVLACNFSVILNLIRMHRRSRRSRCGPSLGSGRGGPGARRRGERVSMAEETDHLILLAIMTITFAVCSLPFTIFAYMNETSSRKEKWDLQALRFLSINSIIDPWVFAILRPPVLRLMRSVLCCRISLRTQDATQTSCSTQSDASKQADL
T2 sequence (P35408 whole entry): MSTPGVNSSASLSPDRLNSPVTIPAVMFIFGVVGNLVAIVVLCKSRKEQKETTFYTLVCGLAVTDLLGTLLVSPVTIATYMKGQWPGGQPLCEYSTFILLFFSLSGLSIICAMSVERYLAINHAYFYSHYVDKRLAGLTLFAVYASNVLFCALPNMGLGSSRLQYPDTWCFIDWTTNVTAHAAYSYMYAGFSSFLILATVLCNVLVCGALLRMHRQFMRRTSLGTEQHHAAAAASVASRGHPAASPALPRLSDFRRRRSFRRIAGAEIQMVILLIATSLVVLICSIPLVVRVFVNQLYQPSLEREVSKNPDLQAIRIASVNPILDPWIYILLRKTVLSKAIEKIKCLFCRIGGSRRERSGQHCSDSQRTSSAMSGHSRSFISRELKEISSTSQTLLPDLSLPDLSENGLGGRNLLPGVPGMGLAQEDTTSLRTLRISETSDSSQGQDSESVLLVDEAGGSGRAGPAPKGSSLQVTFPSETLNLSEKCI

Take `O=C(O)CCCCCC[C@H]1C(=S)CCC[C@@H]1CCC(O)Cc1ccccc1` (stereo partly drawn) [Compound 1]: the EC50 in test [1] is > 10000 nM; in test [3], 0.9 nM. For the same molecule, the IC50 in test [2] was > 10000 nM; in test [4], 81 nM.
With `CC1(C)C(=O)[C@H](C/C=C\CCCC(=O)O)[C@@H](/C=C/[C@H](O)CCc2sc3ccccc3c2Cl)[C@@H]1O` [Compound 2], the EC50 in test [1] is > 10000 nM; in test [3] it was 0.3 nM. This molecule gave an IC50 in test [4] of 7 nM. In addition, the “Scar Scores” value in test [5] was found to be 0.60 ± 0.1.
`CCCCC[C@H](O)c1ccc(N2C(=O)CC[C@@H]2CCCc2ccc(C(=O)O)s2)cc1` [Compound 3] yielded an IC50 in test [2] of 21 nM. For the same molecule, the concentration for a half-maximal effect (EC50) in test [3] is > 10000 nM.
Regarding `O=C(O)c1ccc(CCCN2C(=O)CC[C@@H]2CC[C@@H](O)Cc2cccc(C(F)(F)F)c2)s1` [Compound 4], the EC50 in test [1] turned out to be 71 nM. In addition, the IC50 in test [2] was 4650 nM. In addition, the “Scar Scores” value in test [5] came to 0.76 ± 0.07.
As to `O=C(O)c1ccc(CC2Sc3c(Cl)cccc3N(Cc3ccccc3C(F)(F)F)C2=O)cc1` (stereo not drawn) [Compound 5], the EC50 in test [1] worked out at 1.9 nM; in test [3], 4 nM. In addition, the concentration for half-maximal inhibition (IC50) in test [2] stood at 1 nM; in test [4] it was 0.3 nM. Besides, in test [5], the “Scar Scores” value is given as 0.56 ± 0.07.

(Values after patent publication US20170143733A1, “COMPOUNDS AND METHODS FOR SKIN REPAIR” (Allergan, Inc., priority 2012, published 2017).)
